Test results taken from patent publication US11357786B2, “Synthetic disugar hydrocarbons as natural analogs to control microbial behaviors” (Syracuse University, priority 2014, dated 2022).
“Also recorded” adds a separate entry of the source. Read-outs that look alike come from different tables or passages of the source.

Columns and labels:
[1] = test system: nonswarming P. aeruginosa mutant rhlA; assay: Swarming motility of nonswarming rhlA mutant on soft agar (reactivation / agonist assay); assay type: cell-based, Pseudomonas aeruginosa; settings: for Reactivation of swarming motility of rhlA mutant: concentration not given; for Swarming reactivation of rhlA mutant: 110 μM in soft agar; for Concentration that suppresses reactivation of rhlA swarming by DβC: co-administered with 40 μM DβC
How it was run: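 rhlA transposon mutant of PAO1 (3 μl, OD600 0.4–0.6) inoculated on M8 soft agar (0.2% glucose, 0.5% casamino acids, 1 mM MgSO4, 0.5% agar) with test compound to find swarming agonists. Incubated 12 h at 37 °C plus 12 h at room temperature; swarm area measured by weighing paper cut-outs of imaged swarms.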

[2] = test system: 1-day old PAO1 biofilm; assay: Crystal violet assay for dispersion of 1-day old biofilm, DSHs (Examples 2 and 4); assay type: cell-based, Pseudomonas aeruginosa
Procedure: The effect that DSHs have on the adhesion of PAO1-EGFP on polystyrene surface (microtiter plate) was also examined. PAO1-EGFP is a P. aeruginosa strain that constitutively expresses green fluorescent protein. In the adhesion assays, PAO1-EGFP was grown in microtiter plate for 24-hours in LB-media with (160 μM) or without DSHs. After 24-hours, the fluorescent signal obtained from surface adhered PAO1-EGFP was measured. Percent reduction in fluorescence was calculated by comparing fluorescent signal from PAO1-EGFP grown in LB-media with the signal from wells that had DSHs (FIG. 29A). To study the effect of DSHs on biofilm formation, Pseudomonas aeruginosa (PAO1) was grown in LB-media with (160 μM) or without DSHs at 37° C. under static conditions within wells of microtiter plates. After 24 hours, the surface attached biofilms adhering to the bottom of the wells were stained with crystal-violet dye and the biofilm was quantified by measuring absorbance at 600 nm (OD600). The percent inhibition was calculated by comparing biofilm content of wells with no added agents (control) with the biofilm content from wells that had 160 μM of DSHs (FIG. 29A). Similar to inhibition, the surface attached biofilm after dispersion with DSHs was quantified with crystal-violet staining and absorbance measurement at 600 nm, except that for dispersion, biofilm was first grown for 1 day in just LB-media without any DSHs after which DSHs were added and plates were incubated for additional 24 hours followed by quantification (FIG. 29B).
Crystal violet based assay for quantifying dispersion of 1-day old PAO1 biofilms were Plate for set up similar to inhibition assay with a slight modification. Wells of the micro-titer plate was inoculated with (200 μL) bacterial subculture (PAO1 subculture OD600 ˜0.1). The plates were incubated at 37° C. for 24 hours to allow biofilm formation. After 24 hours, bacterial culture was gently pipetted out and appropriate volume of DSH were added followed by addition of fresh LB medium (200 μL). The microtiter plate was incubated for an additional 24 hours at 37° C., following which, similar to work up of inhibition assay, culture was removed, wells were washed and CV-dye was introduced, followed by washing and destaining with 30% AcOH solution in water and quantification at 600 nm. Here again, only the surface attached biofilm dispersed was reported by comparing wells with DSHs with wells with no agent.
Dose dependence assays for biofilm inhibition and dispersion. […] Both for biofilm inhibition and dispersion, predetermined volumes of DSH stocks were added to the assigned wells to span a concentration range between 0.5 μM-170 μM. Percent biofilm inhibition of dispersion was calculated by comparing to wells with no agent. The percent biofilm inhibition or dispersion was plotted versus concentration of DSHs. The linear values were logarithmically curve fitted using equation […]. The half maximal inhibitory concentration for both biofilm inhibition and dispersion (IC50 and DC50) were thus obtained.

[3] = 85 μM in soft agar (0.5%), 24 h
[4] = Example 2, FIG. 20, read-out: Biofilm dispersion DC50
[5] = Example 4, FIG. 31, read-out: Half-maximal dispersion concentration (DC50)

## CCCCCCCCCCCCOCCOCCOCCOCCO [C12EG4OH, tetra (ethylene glycol) monododecyl ether, reference compound]
[1]
  Reactivation of swarming motility of rhlA mutant: do not reactivate the swarming motility; also recorded: did not promote or reactivate
[1]; listed as C12EG5OH
  Reactivation of swarming motility of rhlA mutant: did not incur any bioactivity

## CCCCCCCCCCCCOS(=O)(=O)[O-].[Na+] [SDS, sodium dodecyl sulfate, reference compound]
[1]; sulfate
  Reactivation of swarming motility of rhlA mutant: do not reactivate the swarming motility; also recorded: did not incur any bioactivity; also recorded: did not promote or reactivate

## CC(C)CCCC(C)CCCC(C)CCO[C@H]1O[C@H](CO)[C@@H](O[C@@H]2O[C@H](CO)[C@@H](O)[C@H](O)[C@H]2O)[C@H](O)[C@H]1O (stereo partly drawn) [SFαC (13), saturated farnesyl-α-cellobioside]
[1]; [3]
  Swarming motility of rhlA mutant: no apparent effect on rhlA
[1]; 24 h
  Swarming reactivation of rhlA mutant: incapable of reactivating the swarming
[2]; [4]
  DC50: ~78.4 µM
[2]; [5]
  DC50: ~89 µM

## CC(C)CCCC(C)CCCC(C)CCO[C@@H]1O[C@H](CO)[C@@H](O[C@@H]2O[C@H](CO)[C@@H](O)[C@H](O)[C@H]2O)[C@H](O)[C@H]1O (stereo partly drawn) [SFβC (12), saturated famesyl-β-cellobioside]
[1]; 20 μM
  Swarming motility of rhlA mutant: did not activate the swarming motility
[1]; [3]
  Swarming motility of rhlA mutant: no apparent effect on rhlA
[1]; 24 h, listed as 12: SFbC
  Swarming reactivation of rhlA mutant: does not reactivate the swarming of rhlA mutant
[1]; 24 h, listed as 12: SFβC
  Swarming reactivation of rhlA mutant: incapable of reactivating the swarming
[1]
  Concentration that suppresses reactivation of rhlA swarming by DβC: 20 µM
[1]; listed as SFβC
  Concentration that suppresses reactivation of rhlA swarming by DβC: ≤ 20 µM
[1]; soft agar
  Concentration of activity reversal for swarming promotion of rhlA mutant (transition concentration): ~8 µM
[1]; soft agar, 24 h
  Concentration range in which swarming of rhlA is reactivated: 5-12 W
[1]; soft agar, listed as 12
  Concentration of activity reversal for swarming promotion of rhlA mutant (transition concentration): 8 µM
[1]; with 40 μM DβC
  Concentration up to which there is no interference with swarming reactivation of rhlA by DβC: up to 10 μM
[2]; [4]
  DC50: ~36.4 µM
[2]; [5]
  DC50: ~44 µM

## CC(C)CCCC(C)CCCC(C)CCO[C@@H]1O[C@H](CO)[C@@H](O[C@H]2O[C@H](CO)[C@@H](O)[C@H](O)[C@H]2O)[C@H](O)[C@H]1O (stereo partly drawn) [SFβM (14), saturated farnesyl-β-maltoside]
[1]; 10 μM, 24 h
  Swarming area of rhlA: ~14 cm2
[1]; [3]
  Swarming motility of rhlA mutant: no apparent effect on rhlA
[1]; 24 h
  Swarming reactivation of rhlA mutant: incapable of reactivating the swarming
[1]; soft agar
  Concentration of activity reversal for swarming promotion of rhlA mutant (transition concentration): ~10 µM
[1]; soft agar, listed as 14
  Concentration of activity reversal for swarming promotion of rhlA mutant (transition concentration): 10 µM
[2]; [5]
  DC50: ~126 µM
